Assay results taken from EP4772506A1, “COMPOUND FOR REGULATING ACTIVITY OF MICRORNA-124” (Jiangsu Chia Tai Fenghai Pharmaceutical Co., Ltd., priority 2023, dated 2025).

Assays:
[1] = Pharmacokinetic study in rats (plasma, LC-MS/MS); settings: for F: absolute bioavailability, SD male rats, p.o. 25 mg/kg vs i.v. 1 mg/kg; for AUC(0-t) / MRT inf / half-life / Cmax / Tmax: rat, in vivo
Protocol: • (1) SD male rats were used as test animals.
The administration solvent was a physiological saline solution containing 10% DMSO + 10% polyoxyl castor oil (Cremophor EL). Fasting was maintained for approximately 12 hours prior to administration, and free feeding was allowed 4 hours post-administration, with no water restriction. […] After gently inverting the tube to fully mix the anticoagulant EDTA-K2 with the blood, the tube was immediately placed on wet ice. The plasma was separated by centrifugation immediately after blood collection under the following centrifugation conditions: 4°C, 3500 rpm, and 5 min. The upper plasma layer was transferred and stored at -80°C until sample analysis. […] The pharmacokinetic parameters were calculated from the sample analysis results using WinNonlin software.

[2] = Pharmacokinetic study in beagle dogs (plasma, LC-MS/MS); format: in vivo
Protocol: The pharmacokinetic characteristics of test compound 45 was investigated in beagle dogs.
The gavage group was fasted for no less than 12 hours before administration, with free access to water. After 4 h of administration, the dogs were fed uniformly. […] The upper plasma layer was transferred and stored at -20°C until sample analysis. The concentration of the test compound in dog plasma was determined using the LC-MS/MS method. Pharmacokinetic parameters were fitted using WinNonlin software, and absolute bioavailability was calculated. Table 6. Pharmacokinetic parameters of compounds in beagle dogs

| SMILES | F [1] [%] | AUC(0-t) ([1]; iv, 1 mg/kg) [ng·h/mL] | MRT inf ([1]; iv, 1 mg/kg) [h] | half-life ([1]; iv, 1 mg/kg) [h] | AUC(0-t) ([1]; po, 25 mg/kg) [ng·h/mL] | Cmax ([1]; po, 25 mg/kg) [ng/mL] | MRT inf ([1]; po, 25 mg/kg) [h] | Tmax ([1]; po, 25 mg/kg) [h] | half-life ([1]; po, 25 mg/kg) [h] | F ([2]; absolute bioavailability, p.o. 6 mg/kg vs i.v. 1 mg/kg) [%] | AUC(0-t) ([2]; dog, in vivo, iv, i.v. 1mg/kg) [ng·h/mL] | MRT inf ([2]; dog, in vivo, iv, i.v. 1mg/kg) [h] | half-life ([2]; dog, in vivo, iv, i.v. 1mg/kg) [h] | AUC(0-t) ([2]; dog, in vivo, po, p.o. 6 mg/kg) [ng·h/mL] | Cmax ([2]; dog, in vivo, po, p.o. 6 mg/kg) [ng/mL] | MRT inf ([2]; dog, in vivo, po, p.o. 6 mg/kg) [h] | Tmax ([2]; dog, in vivo, po, p.o. 6 mg/kg) [h] | half-life ([2]; dog, in vivo, po, p.o. 6 mg/kg) [h] |
| --- | --- | --- | --- | --- | --- | --- | --- | --- | --- | --- | --- | --- | --- | --- | --- | --- | --- | --- |
| CN(C)CCN(C)c1cc(Cl)cc2nc(Nc3ccc(OC(F)(F)F)cc3)ncc12 [Compound 44] | 34.3 | 650 | 8.9 | 15.1 | 5570 | 389 | 8.2 | 6 | 8.7 | – | – | – | – | – | – | – | – | – |
| FC(F)(F)Oc1ccc(Nc2ncc3c(N4CCOCC4)cc(Cl)cc3n2)cc1 [Compound 45] | 27.6 | 1180 | 1.5 | 2.2 | 8400 | 2550 | 3.2 | 2 | 5.4 | 10.7 | 1560 | 3.56 | 8.88 | 990 | 204 | 5.9 | 2 | 7.18 |
